Experimental data from patent publication US11976072B2, “Diacylglycerol kinase modulating compounds” (priority 2021, dated 2024).
Where two headings read alike, the source gives them in different places.

Experiments:
[1] = tested on: Jurkat NFκB-luciferase cells; assay: Jurkat NFκB-Luciferase Assay; assay type: cell-based; conditions: Homo sapiens
Procedure, shortened: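 Jurkat NFκB-luciferase reporter cells at 1 million cells/ml in RPMI with 10% FBS were added to antibody-coated, compound-containing wells. Luciferase activity read by One-Glo Ex luminescence 7 minutes after reagent addition.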

human DGKα = human DGKα (Homo sapiens, UniProt P23743); assay: DGKα Biochemical Activity Assay (ADP-Glo); conditions: recombinant DGKα 1 nM, 100 μM ATP, 18:1 DAG/POPS/octylglucoside micelles, 1 hour at 25° C.; geometric mean; read-out: HTBS DGKa 1X ATP KM IC50;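 further: luminescent detection of ADP produced as DGKα phosphorylates DAG to phosphatidic acid, IC50 from four-parameter nonlinear curve fit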
human DGKα, sequence (P23743 whole entry): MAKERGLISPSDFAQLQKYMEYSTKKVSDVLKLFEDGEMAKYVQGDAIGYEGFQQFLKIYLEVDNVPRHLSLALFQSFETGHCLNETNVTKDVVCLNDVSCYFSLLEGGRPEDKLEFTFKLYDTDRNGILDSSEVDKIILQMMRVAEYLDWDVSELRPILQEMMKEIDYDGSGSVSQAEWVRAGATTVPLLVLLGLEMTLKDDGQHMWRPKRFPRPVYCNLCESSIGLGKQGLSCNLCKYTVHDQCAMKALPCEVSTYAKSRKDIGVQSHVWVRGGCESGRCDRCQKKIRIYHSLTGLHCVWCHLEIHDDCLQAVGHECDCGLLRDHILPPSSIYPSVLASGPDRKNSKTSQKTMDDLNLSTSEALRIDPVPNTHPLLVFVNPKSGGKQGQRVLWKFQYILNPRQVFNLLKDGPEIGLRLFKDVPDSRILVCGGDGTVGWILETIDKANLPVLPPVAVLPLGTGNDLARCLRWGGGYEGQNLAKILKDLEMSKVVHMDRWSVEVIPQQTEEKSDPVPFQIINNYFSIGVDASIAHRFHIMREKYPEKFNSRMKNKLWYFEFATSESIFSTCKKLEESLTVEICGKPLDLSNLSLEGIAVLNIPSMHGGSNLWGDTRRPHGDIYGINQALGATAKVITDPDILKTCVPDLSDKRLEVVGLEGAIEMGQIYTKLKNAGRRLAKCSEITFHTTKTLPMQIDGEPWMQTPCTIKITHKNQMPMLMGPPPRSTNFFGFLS

[2] = Jurkat NFκB-luciferase cells activated with anti-CD3 antibody (OKT3), 2.5 hrs at 37° C., geometric mean, read-out: DGK NFKb Luciferase EC50
[3] = Jurkat, […], read-out: DGK NFKb Luciferase EC50 (nM)

SMILES | EC50 [1, 2] [nM] | IC50 (human DGKα) [nM] | EC50 [1, 3] [nM]
Cc1nnc2nc(N3CCOCc4c(C#CC(C)(C)NC(=O)OC(C)C(F)(F)F)cccc43)c3c(F)cccc3n12 (centres unmarked) [Example 146, 1,1,1-trifluoropropan-2-yl (4-(1-(6-fluoro-1-methyl-[1,2,4]triazolo[4,3-a]quinazolin-5-yl)-1,2,3,5-tetrahydrobenzo[e][1,4]oxazepin-6-yl)-2-methylbut-3-yn-2-yl)carbamate] | 20.5 | 3.54 | –
Cc1nnc2nc(N3CCCc4c(C#CC5(C)CC5)cccc43)c3c(Cl)c(F)ccc3n12 [Example 33, 6-chloro-7-fluoro-1-methyl-5-[5-[2-(1-methylcyclopropyl)ethynyl]-3,4-dihydro-2H-quinolin-1-yl]-[1,2,4]triazolo[4,3-a]quinazoline] | 1.59 | 42.4 | –
CC(C)(C#Cc1cccc2c1COCCN2c1nc2nnc(N)n2c2cccc(F)c12)C(F)(F)F [Example 124, 6-fluoro-5-(6-(4,4,4-trifluoro-3,3-dimethylbut-1-yn-1-yl)-2,3-dihydrobenzo[e][1,4]oxazepin-1(5H)-yl)-[1,2,4]triazolo[4,3-a]quinazolin-1-amine] | 0.781 | 16.8 | –
Cc1nnc2nc(N(CC(F)F)c3cc(F)cc(C#CC4(C(F)F)CC4)c3)c3c(F)cccc3n12 [Example 25, N-(2,2-difluoroethyl)-N-(3-((1-(difluoromethyl)cyclopropyl)ethynyl)-5-fluorophenyl)-6-fluoro-1-methyl-[1,2,4]triazolo[4,3-a]quinazolin-5-amine] | 7.37 | 30.2 | –
Cc1nnc2nc(N3CCOCc4c(C#CC(C)(C)NC(=O)OC(C)(C)C)cccc43)c3c(F)cccc3n12 [Example 148, tert-butyl (4-(1-(6-fluoro-1-methyl-[1,2,4]triazolo[4,3-a]quinazolin-5-yl)-1,2,3,5-tetrahydrobenzo[e][1,4]oxazepin-6-yl)-2-methylbut-3-yn-2-yl)carbamate] | 6.03 | 4.36 | –
Cc1nnc2nc(N3CCCOc4c(C#CC5(C)CC5)cccc43)c3c(F)c(F)ccc3n12 [Example 122] | 2.63 | 5.27 | –
Cc1nnc2nc(N3CCOCc4c(C#CC5(C(F)F)CC5)cccc43)c3c(F)cccc3n12 [Example 191, 6-[2-[1-(Difluoromethyl)cyclopropyl]ethynyl]-1-(6-fluoro-1-methyl-[1,2,4]triazolo[4,3-a]quinazolin-5-yl)-3,5-dihydro-2H-4,1-benzoxazepine] | 1.42 | 3.66 | –
Cc1nnc2nc(N3CCOCc4c(C#Cc5cnn(C)c5)cccc43)c3c(F)cccc3n12 [Example 218, 1-(6-fluoro-1-methyl-[1,2,4]triazolo[4,3-a]quinazolin-5-yl)-6-((1-methyl-1H-pyrazol-4-yl)ethynyl)-1,2,3,5-tetrahydrobenzo[e][1,4]oxazepine] | 33.9 | 14.5 | –
Fc1ccc(Cl)c2c1c(N1CCOCc3c(C#CC4(C(F)F)CC4)cccc31)nc1nncn12 [Example 39, 1-(9-chloro-6-fluoro-[1,2,4]triazolo[4,3-a]quinazolin-5-yl)-6-[2-[1-(difluoromethyl)cyclopropyl]ethynyl]-3,5-dihydro-2H-4,1-benzoxazepine] | 2.18 | 8.31 | –
Cc1nnc2nc(N(CC(F)F)c3ccnc(C#CC4(C)CC4)c3)c3cc(F)ccc3n12 [Example 96, N-(2,2-difluoroethyl)-7-fluoro-1-methyl-N-(2-((1-methylcyclopropyl)ethynyl)pyridin-4-yl)-[1,2,4]triazolo[4,3-a]quinazolin-5-amine] | 5.1 | 6.22 | –
Cc1nnc2nc(N(CC(F)F)c3cc(F)cc(C#CC4(O)CCC4)c3)c3c(F)cccc3n12 [Example 21, 1-((3-((2,2-difluoroethyl)(6-fluoro-1-methyl-[1,2,4]triazolo[4,3-a]quinazolin-5-yl)amino)-5-fluorophenyl)ethynyl)cyclobutan-1-ol] | 9.42 | 21 | –
Cc1nnc2nc(N(CC(F)F)c3ccnc(C#CC4CC4)c3)c3c(F)cccc3n12 [Example 82, N-(2-(cyclopropylethynyl)pyridin-4-yl)-N-(2,2-difluoroethyl)-6-fluoro-1-methyl-[1,2,4]triazolo[4,3-a]quinazolin-5-amine] | 10.5 | 11.4 | –
Cc1nnc2nc(N3CCOCc4c3ccnc4C#CC3(C)CC3)c3c(F)cccc3n12 [Example 141, 1-(6-fluoro-1-methyl-[1,2,4]triazolo[4,3-a]quinazolin-5-yl)-6-((1-methylcyclopropyl)ethynyl)-1,2,3,5-tetrahydropyrido[4,3-e][1,4]oxazepine] | 5.11 | 4.76 | –
CC(F)(F)C1(C#Cc2cccc3c2CCCCN3c2nc3nncn3c3ccc(F)c(F)c23)CC1 [Example 208, 5-(6-((1-(1,1-Difluoroethyl)cyclopropyl)ethynyl)-2,3,4,5-tetrahydro-1H-benzo[b]azepin-1-yl)-6,7-difluoro-[1,2,4]triazolo[4,3-a]quinazoline] | 0.815 | 18.7 | –
Cc1nnc2nc(N3CCCOc4c(C#CC5CC5)cccc43)c3c(F)c(F)ccc3n12 [Example 116] | 1.07 | 5.19 | –
Fc1cccc2c1c(N1CCCc3c(C#CC4CC(F)(F)C4)cncc31)nc1nncn12 [Example 17, 5-(5-((3,3-difluorocyclobutyl)ethynyl)-3,4-dihydro-1,7-naphthyridin-1(2H)-yl)-6-fluoro-[1,2,4]triazolo[4,3-a]quinazoline] | 1.16 | 14.7 | –
Cc1nnc2nc(N3CCCc4c(C#CC5(O)CC6CC(C6)C5)cccc43)c3c(F)cccc3n12 (centres unmarked) [Example 198, 3-((1-(6-fluoro-1-methyl-[1,2,4]triazolo[4,3-a]quinazolin-5-yl)-1,2,3,4-tetrahydroquinolin-5-yl)ethynyl)bicyclo[3.1.1]heptan-3-ol] | – | 10.8 | 0.508
CC1(C#Cc2cncc3c2CCCN3c2nc3nncn3c3ccc(F)c(F)c23)CC1 [Example 99, 6,7-difluoro-5-(5-((1-methylcyclopropyl)ethynyl)-3,4-dihydro-1,7-naphthyridin-1(2H)-yl)-[1,2,4]triazolo[4,3-a]quinazoline] | 0.483 | 7.4 | –
Cc1nnc2nc(N3CCCc4c(N5CCN(C(=O)OC(C)(C)C)CC5)cccc43)c3c(F)cccc3n12 [Example 161, tert-butyl 4-[1-(6-fluoro-1-methyl-[1,2,4]triazolo[4,3-a]quinazolin-5-yl)-3,4-dihydro-2H-quinolin-5-yl]piperazine-1-carboxylate] | – | 87.1 | 5.49
Cc1nnc2nc(N3CCCc4c(C#CC5(O)CCC5)cccc43)c3cc(F)ccc3n12 [Example 28, 1-((1-(7-fluoro-1-methyl-[1,2,4]triazolo[4,3-a]quinazolin-5-yl)-1,2,3,4-tetrahydroquinolin-5-yl)ethynyl)cyclobutan-1-ol] | 5.09 | 9.49 | –
Cc1nnc2nc(N3CCCc4c(C#Cc5cnn(C)c5)cccc43)c3cc(F)ccc3n12 [Example 236, 7-fluoro-1-methyl-5-[5-[2-(1-methylpyrazol-4-yl)ethynyl]-3,4-dihydro-2H-quinolin-1-yl]-[1,2,4]triazolo[4,3-a]quinazoline] | 2.52 | 3.65 | –
Cc1nnc2nc(N3CCCc4c(C#Cc5cn[nH]c5)cccc43)c3cc(F)ccc3n12 [Example 225, 7-fluoro-1-methyl-5-[5-[2-(1H-pyrazol-4-yl)ethynyl]-3,4-dihydro-2H-quinolin-1-yl]-[1,2,4]triazolo[4,3-a]quinazoline] | 8.97 | 7.46 | –
Cc1nnc2nc(N3CCCc4c(C#CC5(O)CCCCC5)cccc43)c3c(F)cccc3n12 [Example 206, 1-((1-(6-fluoro-1-methyl-[1,2,4]triazolo[4,3-a]quinazolin-5-yl)-1,2,3,4-tetrahydroquinolin-5-yl)ethynyl)cyclohexan-1-ol] | – | 13.5 | 5.07
Cc1nnc2nc(N(CC(F)F)c3ccnc(C#CC4(C(F)F)CC4)c3F)c3c(F)cccc3n12 [Example 44, N-(2,2-difluoroethyl)-N-[2-[2-[1-(difluoromethyl)cyclopropyl]ethynyl]-3-fluoro-4-pyridyl]-6-fluoro-1-methyl-[1,2,4]triazolo[4,3-a]quinazolin-5-amine] | 7.15 | 3.81 | –
Cc1cc(F)cc2c(N(CC(F)F)c3cc(F)cc(C#CC4(C(F)(F)F)CC4)c3)nc3nncn3c12 [Example 106] | 2.53 | 118 | –
Cc1nnc2nc(N3CCN(C)Cc4c(C#CC5(C(F)(F)F)CC5)cccc43)c3c(F)c(F)ccc3n12 [Example 169, 6,7-difluoro-1-methyl-5-[4-methyl-6-[2-[1-(trifluoromethyl)cyclopropyl]ethynyl]-3,5-dihydro-2H-1,4-benzodiazepin-1-yl]-[1,2,4]triazolo[4,3-a]quinazoline] | 4.39 | 7.3 | –
Cc1nnc2nc(N3CCCc4c(C#CC(C)(C)C(F)F)cccc43)c3c(Cl)c(F)ccc3n12 [Example 34, 6-chloro-5-[5-(4,4-difluoro-3,3-dimethyl-but-1-ynyl)-3,4-dihydro-2H-quinolin-1-yl]-7-fluoro-1-methyl-[1,2,4]triazolo[4,3-a]quinazoline] | 0.907 | 30.4 | –
Cc1nnc2nc(N3CCCc4c(C#CC(C)(C)NC(=O)OC(C)C(F)(F)F)cccc43)c3c(F)cccc3n12 (centres unmarked) [Example 149, 1,1,1-trifluoropropan-2-yl (4-(1-(6-fluoro-1-methyl-[1,2,4]triazolo[4,3-a]quinazolin-5-yl)-1,2,3,4-tetrahydroquinolin-5-yl)-2-methylbut-3-yn-2-yl)carbamate] | 5.38 | 14.1 | –
